One test deals with IgM production. The test is described as follows: Test 4 (comparison): inhibition of IgM production. It is filed as in vivo, Balb/c mouse. To be noted: 100 mg/kg orally once a day; for inhibition at 100 mg/kg: Mus musculus, po, Day 1 to Day 10, spleen cells, DNP-BSA 5 μg/ml, 24 hours, read-out: Inhibition rate of IgM production. Here is the method: (§1) Test 4: Test on the inhibition of IgE production
(§2) To a Balb/c mouse, the DNP-labeled ascaris antigen (5 μg) and Alum (1 mg) were intraperitoneally administered on Day 1 and Day 6 to sensitize the mouse with the antibody. From Day 1 to Day 10, a medicament was orally administered at a dose of 100 mg/kg once a day. On Day 11, the mouse was subjected to splenectomy and the spleen so obtained was untangled into its cells. To 5×10^7 cells/ml of the spleen cells so obtained, DNP-BSA (5 μg/ml) was added, followed by incubation at 37° C. for 24 hours. After incubation, 100 μl of the supernatant were collected and subjected to the measurement an IgE measuring kit (Yamasa Co., Ltd.). In order to determine IgG1, IgG2a and IgM, the absorbance of the incubated supernatant was measured by the EIA method and provided for comparison. The inhibition rate of IgE production was calculated according to the below-described formula. Inhibition rates of the IgG1, IgG2a and IgM production were similarly calculated, respectively. [formula]

For the next test, the system named is IgE production. The test is described as follows: Test 4: inhibition of IgE production by spleen cells of orally treated sensitized mice. Type of test: in vivo, Balb/c mouse. To be noted: Mus musculus, po, 100 mg/kg orally once a day, Day 1 to Day 10, DNP-BSA 5 μg/ml, 24 hours, read-out: Inhibition rate of IgE production. The method, then: as §1, §2
For another test, the system named is IgG2a production. The test is described as follows: Test 4 (comparison): inhibition of IgG2a production. Type of test: in vivo, Balb/c mouse. To be noted: 100 mg/kg orally once a day; for inhibition at 100 mg/kg: Mus musculus, po, Day 1 to Day 10, spleen cells, DNP-BSA 5 μg/ml, 24 hours, read-out: Inhibition rate of IgG2a production. Here is the method: as §1, §2

A further test has as its system IL-4 production. The test can be described thus: Test 2: inhibition of IL-4 production in human T-cell strain ATL-16T(-) stimulated with PMA (Bio Source EIA). It is filed as cell-based. The following applies: ATL-16T(-) 5×10^5 cells/0.5 ml/well, 20 nM PMA, 48 hours, read-out: Inhibition rate of IL-4 production; for inhibition at 10 µM: 10^-5 M; for inhibition at 1 µM: 10^-6 M; for inhibition at 0.1 µM: 10^-7 M; for inhibition at 0.01 µM: 10^-8 M. The method, boiled down: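 ATL-16T(-) cells at 5×10^5 cells/0.5 ml/well (n=3) stimulated with 20 nM PMA alongside compound, incubated 48 h at 37 °C, 5% CO2. Supernatant IL-4 measured by EIA and inhibition rate calculated.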

For the next test, the system named is IgG1 production. The test is described as follows: Test 4 (comparison): inhibition of IgG1 production. Type of test: in vivo, Balb/c mouse. To be noted: 100 mg/kg orally once a day; for inhibition at 100 mg/kg: Mus musculus, po, Day 1 to Day 10, spleen cells, DNP-BSA 5 μg/ml, 24 hours, read-out: Inhibition rate of IgG1 production. The method, then: as §1, §2

The test system of a further test is IL-5 production. The test can be described thus: Test 3: inhibition of IL-5 production in human PBMC stimulated with ConA. Type of test: cell-based. The following applies: 10^-6 M, 10 μg/ml ConA, 48 hours, read-out: Inhibition rate of IL-5 production. The method, boiled down:
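Human PBMC from a normal volunteer, 1×10^6 cells/ml in AIM-V, stimulated with 10 μg/ml ConA alongside compound and incubated 48 h at 37 °C, 5% CO2. Supernatant IL-5 quantified by EIA; inhibition rate calculated from a formula.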

Results on three compounds are retold here after patent US6046218A, “Pyridine derivative and medicament containing the same as an effective ingredient” (SS Pharmaceutical Co., Ltd., priority 1996, dated 2000).

Structures can show the parent of a compound that is named as a salt.

What is called inhibition is the change of the read-out against control, counted positive when it falls. As to `COc1cnc(/C=C/C(=O)C2CCCCC2)cc1OCCCC(=O)O` [Ex. 106, 4-[2-(3-Cyclohexyl-3-oxo-1-propenyl)-5-methoxy-4-pyridyloxy]butanoic acid], the inhibition at 100 mg/kg is -7.3% in the test on IgM production, 28.8% in the test on IgE production, 2.1% with IgG2a production and -0.8% with IgG1 production. Further, the inhibition at 10 µM in the test on IL-4 production stood at 75.6%. For the same compound, the inhibition at 1 µM with IL-4 production came out at 31.7%; with IL-5 production, 78.7%. Further, the inhibition at 0.1 µM in the test with IL-4 production was determined as 9.4%. The inhibition at 0.01 µM with IL-4 production was 8.6%.

Take `CCOC(=O)CCCCCOc1cc(/C=C/C(=O)c2ccc(OC)cc2OC)ncc1OC` [Ex. 92, Ethyl 6-[5-methoxy-2-(3-(2,4-dimethoxyphenyl)-3-oxo-1-propenyl)-4-pyridyloxy]hexanoate hydrochloride]: the inhibition at 100 mg/kg is -8.3% in the test with IgM production, 61.2% in the test on IgE production, -6% in the test with IgG2a production and -4.3% with IgG1 production. Moreover, the “effects on the production of IgM” value with IgM production (in words) was “No effects were observed”. For the same compound, the “effects on the production of IgG2a” value with IgG2a production (in words) was “No effects were observed”. The inhibition at 10 µM in the test on IL-4 production is 54.2%. Further, the values for the inhibition at 1 µM in the test on IL-4 production and with IL-5 production were 48.4% and 96.4%, respectively. The inhibition at 0.1 µM with IL-4 production is 31%. The inhibition at 0.01 µM with IL-4 production turned out to be 25.3%. Further, the “effects on the production of IgG1” value with IgG1 production (in words) is “No effects were observed”.

Take `CCOC(=O)CCCCCOc1cc(/C=C/C(=O)c2ccc(OC)c(OC)c2)ncc1OC` [Ex. 90, Ethyl 6-[5-methoxy-2-(3-(3,4-dimethoxyphenyl)-3-oxo-1-propenyl)-4-pyridyloxy]hexanoate hydrochloride]: the inhibition at 100 mg/kg was -10.3% with IgM production, 21.5% in the test on IgE production, 7% in the test on IgG2a production and 2.7% in the test on IgG1 production. Further, in the test on IL-4 production, the inhibition at 10 µM was found to be 25.3%. The inhibition at 1 µM in the test with IL-4 production was found to be 26.4%; in the test with IL-5 production, 75.6%. The inhibition at 0.1 µM in the test with IL-4 production is 28.6%. In addition, the inhibition at 0.01 µM in the test with IL-4 production was determined as 43.2%.
